Measurements published in patent US20260242419A1, “A CYCLIC PEPTIDE FOR TRAPPING INTERLEUKIN-1 BETA” (Merck Sharp & Dohme LLC, priority 2023, published 2026).
Non-standard residues stand in square brackets, D forms with d. Residues, ends and D or L forms follow the SMILES beside them. dPro(4R-(4-pyridylmethyl)) = O=C(O)[C@H]1C[C@@H](Cc2ccncc2)CN1; Trp(βS-Me,4-F) = C[C@@H](c1c[nH]c2cccc(F)c12)[C@H](N)C(=O)O; Bip(4'-COOH) = N[C@@H](Cc1ccc(-c2ccc(C(=O)O)cc2)cc1)C(=O)O; dPro(4R-Bzl(4-F)) = O=C(O)[C@H]1C[C@@H](Cc2ccc(F)cc2)CN1; dPro(3S-(4-F-Bn)) = O=C(O)[C@@H]1NCC[C@@H]1Cc1ccc(F)cc1; Ala(pyrimidin-5-yl) = N[C@@H](Cc1cncnc1)C(=O)O; Phe(4-COOH) = N[C@@H](Cc1ccc(C(=O)O)cc1)C(=O)O; Phe(4-tBu) = CC(C)(C)c1ccc(C[C@H](N)C(=O)O)cc1; Pro(cis-4-F) = O=C(O)[C@@H]1C[C@H](F)CN1; Dap(CONH2) = NC(=O)NC[C@H](N)C(=O)O; cisHyp = O=C(O)[C@@H]1C[C@H](O)CN1; d(αMeD) = C[C@@](N)(CC(=O)O)C(=O)O; 4Pal = N[C@@H](Cc1ccncc1)C(=O)O; αMeK = C[C@](N)(CCCCN)C(=O)O; Dab = NCC[C@H](N)C(=O)O; Dap = NC[C@H](N)C(=O)O; Aib = CC(C)(N)C(=O)O

target: T1, IL-1β (Homo sapiens, UniProt P01584); assay: IL-6 assay in MRC5 cells: inhibition of IL-1β induced IL-6 secretion (AlphaLISA); assay type: cell-based; conditions: inhibition of IL-1β induced IL-6 secretion in MRC5 cells; compound pre-incubated 1 hour with recombinant human IL-1β; read-out: MRC5 IC50
T1 construct: purchased BioLegend 579404
T1 sequence (P01584 117-269): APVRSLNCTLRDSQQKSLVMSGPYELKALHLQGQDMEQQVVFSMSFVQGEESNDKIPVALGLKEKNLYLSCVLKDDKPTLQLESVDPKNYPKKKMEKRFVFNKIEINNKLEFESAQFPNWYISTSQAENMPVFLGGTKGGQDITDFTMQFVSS
Method in brief: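 Compound was pre-incubated 1 h at ambient temperature with recombinant human IL-1β at 2λ EC80 before adding human lung fibroblast MRC5 cells (3000/well) in EMEM with 0.025% BSA. After overnight culture at 37 °C, 5% CO2, secreted IL-6 in conditioned medium was measured by AlphaLISA; IC50 from 4-parameter logistic fits.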

Row | IC50 [nM] | Structure (SMILES)
1 | 0.023 | C[C@@H](c1c[nH]c2cccc(F)c12)[C@@H]1NC(=O)[C@@H]2C[C@H](F)CN2C(=O)CNC(=O)[C@H](Cc2ccc(C(=O)O)cc2)NC(=O)[C@H](Cc2ccncc2)NC(=O)[C@H](Cc2ccc(-c3ccc(C(=O)O)cc3)cc2)NC(=O)[C@H]2C[C@@H](Cc3ccncc3)CN2C(=O)CNC(=O)[C@H](CNC(N)=O)NC(=O)[C@H](CCC(N)=O)NC(=O)[C@H](Cc2cncnc2)NC(=O)C(C)(C)NC(=O)[C@H](Cc2c[nH]c3ccccc23)NC(=O)[C@H](CO)NC(=O)C(C)(C)NC1=O [Example 270] (cyclo([Bip(4'-COOH)][4Pal][Phe(4-COOH)]G[Pro(cis-4-F)][Trp(βS-Me,4-F)][Aib]SW[Aib][Ala(pyrimidin-5-yl)]Q[Dap(CONH2)]G[dPro(4R-(4-pyridylmethyl))]))
2 | 0.021 | C[C@@H](c1c[nH]c2cccc(F)c12)[C@@H]1NC(=O)[C@@H]2C[C@H](F)CN2C(=O)CNC(=O)[C@H](Cc2ccc(C(=O)O)cc2)NC(=O)[C@H](Cc2ccncc2)NC(=O)[C@H](Cc2ccc(O)cc2)NC(=O)[C@H]2[C@@H](Cc3ccc(F)cc3)CCN2C(=O)CNC(=O)[C@H](CCN)NC(=O)[C@H](CCC(N)=O)NC(=O)[C@H](Cc2cncnc2)NC(=O)[C@@](C)(CC(=O)O)NC(=O)[C@H](Cc2c[nH]c3ccccc23)NC(=O)[C@H](CO)NC(=O)C(C)(C)NC1=O [Example 278] (cyclo(Y[4Pal][Phe(4-COOH)]G[Pro(cis-4-F)][Trp(βS-Me,4-F)][Aib]SW[d(αMeD)][Ala(pyrimidin-5-yl)]Q[Dab]G[dPro(3S-(4-F-Bn))]))

same assay, conditions: inhibition of IL-1β induced IL-6 secretion in MRC5 cells; read-out: MRC5 IC50

Row | IC50 [nM] | Structure (SMILES)
3 | 0.013 | C[C@@H](c1c[nH]c2cccc(F)c12)[C@@H]1NC(=O)[C@@H]2C[C@H](O)CN2C(=O)CNC(=O)[C@H](Cc2ccc(C(=O)O)cc2)NC(=O)[C@H](Cc2ccncc2)NC(=O)[C@H](Cc2ccc(-c3ccc(C(=O)O)cc3)cc2)NC(=O)[C@H]2C[C@@H](Cc3ccncc3)CN2C(=O)CNC(=O)[C@H](CCN)NC(=O)[C@H](CCC(N)=O)NC(=O)[C@H](Cc2cncnc2)NC(=O)[C@@](C)(CC(=O)O)NC(=O)[C@H](Cc2c[nH]c3ccccc23)NC(=O)[C@H](CO)NC(=O)C(C)(C)NC1=O [Example 159] (cyclo([Bip(4'-COOH)][4Pal][Phe(4-COOH)]G[cisHyp][Trp(βS-Me,4-F)][Aib]SW[d(αMeD)][Ala(pyrimidin-5-yl)]Q[Dab]G[dPro(4R-(4-pyridylmethyl))]))
4 | 0.017 | C[C@@H](c1c[nH]c2cccc(F)c12)[C@@H]1NC(=O)[C@@H]2C[C@H](F)CN2C(=O)CNC(=O)[C@H](Cc2ccc(C(=O)O)cc2)NC(=O)[C@H](Cc2ccncc2)NC(=O)[C@H](Cc2ccc(C(C)(C)C)cc2)NC(=O)[C@H]2C[C@@H](Cc3ccncc3)CN2C(=O)CNC(=O)[C@H](CCN)NC(=O)[C@H](CCC(N)=O)NC(=O)[C@H](Cc2cncnc2)NC(=O)C(C)(C)NC(=O)[C@H](Cc2c[nH]c3ccccc23)NC(=O)[C@H](CCC(=O)O)NC(=O)C(C)(C)NC1=O [Example 311] (cyclo([Phe(4-tBu)][4Pal][Phe(4-COOH)]G[Pro(cis-4-F)][Trp(βS-Me,4-F)][Aib]EW[Aib][Ala(pyrimidin-5-yl)]Q[Dab]G[dPro(4R-(4-pyridylmethyl))]))
5 | 0.021 | C[C@@H]1NC(=O)C(C)(C)NC(=O)[C@H]([C@@H](C)c2c[nH]c3cccc(F)c23)NC(=O)[C@@H]2C[C@H](F)CN2C(=O)CNC(=O)[C@H](Cc2ccc(C(=O)O)cc2)NC(=O)[C@H](Cc2ccncc2)NC(=O)[C@H](Cc2ccc(-c3ccc(C(=O)O)cc3)cc2)NC(=O)[C@H]2C[C@@H](Cc3ccc(F)cc3)CN2C(=O)CNC(=O)[C@H](CCN)NC(=O)[C@H](CCC(N)=O)NC(=O)[C@H](Cc2cncnc2)NC(=O)[C@](C)(CCCCN)NC(=O)[C@H](Cc2c[nH]c3ccccc23)NC1=O [Example 134] (cyclo([Bip(4'-COOH)][4Pal][Phe(4-COOH)]G[Pro(cis-4-F)][Trp(βS-Me,4-F)][Aib]AW[αMeK][Ala(pyrimidin-5-yl)]Q[Dab]G[dPro(4R-Bzl(4-F))]))
6 | 0.026 | C[C@@H](c1c[nH]c2cccc(F)c12)[C@@H]1NC(=O)[C@@H]2C[C@H](F)CN2C(=O)CNC(=O)[C@H](Cc2ccc(C(=O)O)cc2)NC(=O)[C@H](Cc2ccncc2)NC(=O)[C@H](Cc2ccc(-c3ccc(C(=O)O)cc3)cc2)NC(=O)[C@H]2C[C@@H](Cc3ccc(F)cc3)CN2C(=O)CNC(=O)[C@H](CN)NC(=O)[C@H](CCC(N)=O)NC(=O)[C@H](Cc2cncnc2)NC(=O)C(C)(C)NC(=O)[C@H](Cc2c[nH]c3ccccc23)NC(=O)[C@H](CCC(=O)O)NC(=O)C(C)(C)NC1=O [Example 7] (cyclo([Bip(4'-COOH)][4Pal][Phe(4-COOH)]G[Pro(cis-4-F)][Trp(βS-Me,4-F)][Aib]EW[Aib][Ala(pyrimidin-5-yl)]Q[Dap]G[dPro(4R-Bzl(4-F))]))
